Where “and” joins values, the source holds several entries; their conditions need not be identical. Identical values can stand only once.
Test system: 292921-168-R-J2-PDC complex spheroid growth
Assay: Anticancer human tumor 292921-168-R-J2-PDC patient-derived pancreatic carcinoma cell line growth inhibition [AhR]
Details: for viability, T/C: stronger effect = lower value
In short: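 Spheroids combined tumor cells with HUVEC endothelial cells and human MSCs as stroma. AhR antagonists were paired with standard or investigational drugs, each dosed in half-log steps down from near clinical Cmax, or from 10 microM where Cmax was unknown.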

[1] = curve of first compound, second compound 0.1 µM
[2] = curve of first compound, second compound 0.316 µM
[3] = curve of first compound, second compound 1 µM
[4] = curve of first compound, second compound 3.16 µM
[5] = curve of first compound, second compound 10 µM
[6] = second compound 0.1 µM, first compound 0.0316 µM
[7] = second compound 0.1 µM, first compound 0.1 µM
[8] = second compound 0.316 µM, first compound 0.0316 µM
[9] = second compound 0.316 µM, first compound 0.1 µM
[10] = second compound 1 µM, first compound 0.0316 µM
[11] = second compound 1 µM, first compound 0.1 µM
[12] = second compound 3.16 µM, first compound 0.0316 µM
[13] = second compound 3.16 µM, first compound 0.1 µM
[14] = second compound 10 µM, first compound 0.0316 µM
[15] = second compound 10 µM, first compound 0.1 µM
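Note: spheroids exposed to compounds for seven days after three days of growth.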

Cn1ncnc1C1c2n[nH]c(=O)c3cc(F)cc(c23)NC1c1ccc(F)cc1 (configuration not stated) + Cc1cncc(-c2nc(NCCc3c[nH]c4ccccc34)c3ncn(C(C)C)c3n2)c1
IC50 [1]: > 100 nM
IC50 [2]: > 100 nM
IC50 [3]: > 100 nM
IC50 [4]: > 100 nM
IC50 [5]: 35.1 nM
viability, T/C (second compound 0.1 µM, first compound 0.000316 µM): 94.3%
viability, T/C (second compound 0.1 µM, first compound 0.001 µM): 96.7%
viability, T/C (second compound 0.1 µM, first compound 0.00316 µM): 86.5%
viability, T/C (second compound 0.1 µM, first compound 0.01 µM): 95.5%
viability, T/C [6]: 83.9%
viability, T/C [7]: 82.6%
viability, T/C (second compound 0.316 µM, first compound 0.000316 µM): 91.4%
viability, T/C (second compound 0.316 µM, first compound 0.001 µM): 102%
viability, T/C (second compound 0.316 µM, first compound 0.00316 µM): 83.6%
viability, T/C (second compound 0.316 µM, first compound 0.01 µM): 89.2%
viability, T/C [8]: 83.7%
viability, T/C [9]: 76.7%
viability, T/C (second compound 1 µM, first compound 0.000316 µM): 80.8%
viability, T/C (second compound 1 µM, first compound 0.001 µM): 87.3%
viability, T/C (second compound 1 µM, first compound 0.00316 µM): 85.6%
viability, T/C (second compound 1 µM, first compound 0.01 µM): 73.8%
viability, T/C [10]: 74.5%
viability, T/C [11]: 81.9%
viability, T/C (second compound 3.16 µM, first compound 0.000316 µM): 68.7%
viability, T/C (second compound 3.16 µM, first compound 0.001 µM): 71.4%
viability, T/C (second compound 3.16 µM, first compound 0.00316 µM): 72.3%
viability, T/C (second compound 3.16 µM, first compound 0.01 µM): 56.2%
viability, T/C [12]: 60.1%
viability, T/C [13]: 66.2%
viability, T/C (second compound 10 µM, first compound 0.000316 µM): 50.8%
viability, T/C (second compound 10 µM, first compound 0.001 µM): 54.4%
viability, T/C (second compound 10 µM, first compound 0.00316 µM): 55.5%
viability, T/C (second compound 10 µM, first compound 0.01 µM): 52.5%
viability, T/C [14]: 47.7%
viability, T/C [15]: 48%

Nc1ncn(C2CC(O)C(CO)S2)c(=O)n1 (configuration not stated)
viability, T/C (compound 0.000949 µM): 108% and 106% and 99.4%
viability, T/C (compound 0.003 µM): 111% and 90.8% and 101%
viability, T/C (compound 0.00949 µM): 107% and 98.6% and 93.5%
viability, T/C (compound 0.03 µM): 90.9% and 104% and 96.8%
viability, T/C (compound 0.0949 µM): 90.8% and 93.8% and 95.5%
viability, T/C (compound 0.3 µM): 88.6% and 81.2% and 78.3%
IC50 (curve of compound): > 300 nM

O=C(C=Cc1cccc(S(=O)(=O)Nc2ccccc2)c1)NO + Cc1cncc(-c2nc(NCCc3c[nH]c4ccccc34)c3ncn(C(C)C)c3n2)c1
IC50 [1]: 374 nM
IC50 [2]: 460 nM
IC50 [3]: 280 nM
IC50 [4]: < 31.6 nM
IC50 [5]: < 31.6 nM
viability, T/C [6]: 76%
viability, T/C [7]: 59.6%
viability, T/C (second compound 0.1 µM, first compound 0.316 µM): 46.1%
viability, T/C (second compound 0.1 µM, first compound 1 µM): 41%
viability, T/C (second compound 0.1 µM, first compound 3.16 µM): 36%
viability, T/C (second compound 0.1 µM, first compound 10 µM): 3.84%
viability, T/C [8]: 69.9%
viability, T/C [9]: 61.4%
viability, T/C (second compound 0.316 µM, first compound 0.316 µM): 50.9%
viability, T/C (second compound 0.316 µM, first compound 1 µM): 39.9%
viability, T/C (second compound 0.316 µM, first compound 3.16 µM): 33.4%
viability, T/C (second compound 0.316 µM, first compound 10 µM): 3.8%
viability, T/C [10]: 55.3%
viability, T/C [11]: 59.7%
viability, T/C (second compound 1 µM, first compound 0.316 µM): 49.6%
viability, T/C (second compound 1 µM, first compound 1 µM): 35.4%
viability, T/C (second compound 1 µM, first compound 3.16 µM): 30.5%
viability, T/C (second compound 1 µM, first compound 10 µM): 4.08%
viability, T/C [12]: 46.3%
viability, T/C [13]: 46.6%
viability, T/C (second compound 3.16 µM, first compound 0.316 µM): 46%
viability, T/C (second compound 3.16 µM, first compound 1 µM): 31.9%
viability, T/C (second compound 3.16 µM, first compound 3.16 µM): 31.7%
viability, T/C (second compound 3.16 µM, first compound 10 µM): 4.11%
viability, T/C [14]: 32.9%
viability, T/C [15]: 34.2%
viability, T/C (second compound 10 µM, first compound 0.316 µM): 30.1%
viability, T/C (second compound 10 µM, first compound 1 µM): 29%
viability, T/C (second compound 10 µM, first compound 3.16 µM): 26.6%
viability, T/C (second compound 10 µM, first compound 10 µM): 6.63%

Nc1ncn(C2CC(O)C(CO)S2)c(=O)n1 (configuration not stated) + Cc1cncc(-c2nc(NCCc3c[nH]c4ccccc34)c3ncn(C(C)C)c3n2)c1
IC50 [1]: > 300 nM
IC50 [2]: > 300 nM
IC50 [3]: > 300 nM
IC50 [4]: > 300 nM
IC50 [5]: 91.3 nM
viability, T/C (second compound 0.1 µM, first compound 0.000949 µM): 94.8%
viability, T/C (second compound 0.1 µM, first compound 0.003 µM): 92.2%
viability, T/C (second compound 0.1 µM, first compound 0.00949 µM): 91.3%
viability, T/C (second compound 0.1 µM, first compound 0.03 µM): 92.6%
viability, T/C (second compound 0.1 µM, first compound 0.0949 µM): 87%
viability, T/C (second compound 0.1 µM, first compound 0.3 µM): 89.9%
viability, T/C (second compound 0.316 µM, first compound 0.000949 µM): 91%
viability, T/C (second compound 0.316 µM, first compound 0.003 µM): 85.9%
viability, T/C (second compound 0.316 µM, first compound 0.00949 µM): 88.2%
viability, T/C (second compound 0.316 µM, first compound 0.03 µM): 98.2%
viability, T/C (second compound 0.316 µM, first compound 0.0949 µM): 88.2%
viability, T/C (second compound 0.316 µM, first compound 0.3 µM): 92.7%
viability, T/C (second compound 1 µM, first compound 0.000949 µM): 71.9%
viability, T/C (second compound 1 µM, first compound 0.003 µM): 74%
viability, T/C (second compound 1 µM, first compound 0.00949 µM): 69.7%
viability, T/C (second compound 1 µM, first compound 0.03 µM): 75.1%
viability, T/C (second compound 1 µM, first compound 0.0949 µM): 82.4%
viability, T/C (second compound 1 µM, first compound 0.3 µM): 82.9%
viability, T/C (second compound 3.16 µM, first compound 0.000949 µM): 52.2%
viability, T/C (second compound 3.16 µM, first compound 0.003 µM): 55.5%
viability, T/C (second compound 3.16 µM, first compound 0.00949 µM): 59.5%
viability, T/C (second compound 3.16 µM, first compound 0.03 µM): 47.3%
viability, T/C (second compound 3.16 µM, first compound 0.0949 µM): 50%
viability, T/C (second compound 3.16 µM, first compound 0.3 µM): 57.8%
viability, T/C (second compound 10 µM, first compound 0.000949 µM): 50.1%
viability, T/C (second compound 10 µM, first compound 0.003 µM): 48.8%
viability, T/C (second compound 10 µM, first compound 0.00949 µM): 54.6%
viability, T/C (second compound 10 µM, first compound 0.03 µM): 50%
viability, T/C (second compound 10 µM, first compound 0.0949 µM): 50.2%
viability, T/C (second compound 10 µM, first compound 0.3 µM): 48.4%

Reference: PubChem BioAssay AID1918994 (Molecular Pharmacology Branch, DTP, NCI, 2023)
